Measurements: patent US20230098995A1 (SYNGENTA CROP PROTECTION AG, priority 2020, published 2023)

The molecules below were run on Corynespora cassiicola (assay: Corynespora cassiicola liquid culture growth inhibition (microtiter plate, PDB)). Settings: photometric at 620 nm after 3-4 days at 24 C, compared to untreated control.
Format: cell-based
Experimental: Conidia of the fungus from cryogenic storage were directly mixed into nutrient broth (PDB potato dextrose broth). A DMSO solution of the test compounds was placed into a microtiter plate (96-well format) and the nutrient broth containing the fungal spores was added to it. The test plates were incubated at 24 C and the inhibition of growth (% control of Corynespora cassiicola) was determined photometrically after 3-4 days at 620 nm. The activity of a compound is derived by comparing the inhibition of growth in the treated test solution to the growth in the untreated check. The concentration of the compounds was 6.7, 2.2, 0.74, 0.25, 0.082 and 0.027 ppm.

| SMILES | inhibition at 6.7 ppm |
| --- | --- |
| CC(C)CC(C)(Cc1ccccc1)NC(=O)c1cnc2c(F)cccc2c1 (centres unmarked) [Compound 2] | ≥ 70% |
| C=C(Cl)CC(C)(Cc1ccccc1)NC(=O)c1cnc2c(F)cccc2c1 (centres unmarked) [Compound 4] | ≥ 70% |
| CC(C)CC(C)(Cc1cccc(F)c1)NC(=O)c1cnc2c(F)cccc2c1 (centres unmarked) [Compound 6] | ≥ 70% |
| CC(C)C[C@](C)(Cc1ccccc1)NC(=O)c1cnc2c(F)cccc2c1 [Compound 9] | ≥ 70% |
| C[C@](Cc1ccccc1)(CC(F)(F)F)NC(=O)c1cnc2c(F)cccc2c1 [Compound 11] | ≥ 70% |
| C[C@@](Cc1ccccc1)(CC(F)(F)F)NC(=O)c1cnc2c(F)cccc2c1 [Compound 12] | ≥ 70% |
| C=C(Cl)C[C@](C)(Cc1ccccc1)NC(=O)c1cnc2c(F)cccc2c1 [Compound 13] | ≥ 70% |
| CC(C)C[C@@](C)(Cc1ccccc1)NC(=O)c1cnc2c(F)c(F)ccc2c1 [Compound 16] | ≥ 70% |
